Patent publication US20150320692A1 (UNIWERSYTET LÓDZKI, priority 2012, published 2015)

System: CLL cells (leukemic lymphocytes)
Test: Assessment of mitochondrial membrane potential (CMXRos, flow cytometry)
Type: cell-based, human
Settings: for mean percentage of cells with lower mitochondrial potential (ΔΨm^low/Gly-A^−): 1.6 μM
Source text: Mitochondrial membrane potential is an early indicator of apoptosis. CMXRos, i.e. Chloromethyl-X-rosamine (the reagent's name by Mito Tracker Red CMXRos, Molecular Probes, USA), and a monoclonal antibody to glycophorin A conjugated with FITC (the reagent's name of Anti-Glycophorin A FITC by Dako, Denmark) were used for its assessment. CMXRos is a lipophilic cationic dye that accumulates in the mitochondrial matrix of viable cells when there is an electronegative load on the inner surface of the mitochondrial membrane. This asymmetric location of protons along the inner mitochondrial membrane leads to a high mitochondrial membrane potential (ΔΨm) in living cells. A decreased mitochondrial potential ΔΨm is one of the first symptoms of apoptosis during the process of induction, which results in lowering of the mitochondrial uptake of CMXRos.
The stock CMXRos solution was prepared by dilution of the substance supplied by the manufacturer in 94 μl DMSO (dimethylsulphoxide), and stored at […]. Then working solution was prepared also using DMSO (1:10) and stored at 4° C. Mononuclear cells, i.e. leukemic lymphocytes, at 1×10^6 MNCs/ml concentration, were incubated with CMXRos (2.5 μl working solution in 500 μl RPMI 1640 medium) at 37° C. for 30 minutes. […] The samples were next measured using flow cytometry. The percentage of cells not bound to anti-glycophorin A-FITC (ΔΨm^low/Gly-A^− cells), with low mitochondrial potential, was calculated.
All fluorescence measurements were performed by a flow cytometer FACSCalibur (Becton Dickinson, USA) equipped with an argon laser 488 nm and computer program CellQuestPro (Becton Dickinson, USA). Each time 10 000 cells were evaluated. The fluorescence was measured using standard emission filters: green—FL1 (wavelength λ=530±20 nm) and red—FL3 (>600 nm).

Compound: Nc1nc(F)nc2c1ncn2[C@@H]1O[C@H](CO)[C@@H](O)[C@@H]1O [FA, fludarabine]
- mean percentage of cells with lower mitochondrial potential (ΔΨm^low/Gly-A^−) (24 h): 52.05%
- mean percentage of cells with lower mitochondrial potential (ΔΨm^low/Gly-A^−) (48 h): 74.49%

Compound: rituximab
- apoptosis-inducing action (mitochondrial potential) compared with control (10 μg/ml, 24-hour cultures): apoptosis-inducing action in order of spontaneous apoptosis
